This passage reports IC50 results from US20070043000A1, “Immunosuppresive effects of pteridine derivatives” (priority 2003, published 2007).

Read-outs that look alike come from different tables or passages of the source.

As usually defined, the IC50 is the concentration that inhibits the measured activity by half.

Holding throughout (type): cell-based, human
Experiment [1] has as its system peripheral blood mononuclear cells (PBMC). As to the kind of experiment: Mixed lymphocyte reaction (MLR) test. The method, then:
All reagents were dissolved in 0.5 ml dimethylsulfoxide (hereinafter referred as DMSO) and further diluted in culture medium before use for the following in vitro experiments. The commercially available culture medium consisted of RPMI-1640+10% foetal calf serum (FCS). Peripheral blood mononuclear cells (hereinafter referred as PBMC) were isolated from heparinized peripheral blood by density gradient centrifugation over Lymphoprep (Nycomed, Maorstua, Norway). Allogeneic PBMC or […]-Barr Virus-transformed human B cells [commercially available under the trade name RPMI1788 (ATCC name CCL156)] which strongly express B7-1 and B7-2 antigens were used as stimulator cells after irradiation with 30 Gy. MLR was performed in triplicate wells. After 5 days incubation at 37° C., 1 μCi [^3H]-thymidine was added to each cup. After a further 16 hours incubation, cells were harvested and counted in a β-counter. Inhibition of proliferation by a compound (drug) described in some of the previous examples was counted using the formula: [formula] wherein cpm is the thymidine count per minute. TNF-Alpha and IL-1 Beta Assays

In experiment [2] the test system is TNF-alpha production by PBMC. In words: TNF-alpha assay, LPS-stimulated PBMC, sandwich ELISA. The procedure: (§1) All reagents were dissolved in 0.5 ml dimethylsulfoxide (hereinafter referred as DMSO) and further diluted in culture medium before use for the following in vitro experiments. The commercially available culture medium consisted of RPMI-1640+10% foetal calf serum (FCS). Peripheral blood mononuclear cells (herein referred as PBMC), in response to stimulation by lipopolysaccharide (LPS), a gram-negative bacterial endotoxin, produce various […], in particular human TNF-alpha and II-1 beta. The inhibition of the activation of PBMC can be measured by the level of suppression of the production of TNF-alpha or IL-1 beta by PBMC in response to stimulation by LPS. Such inhibition measurement was performed as follows: PBMC were isolated from heparinized peripheral blood (Buffy coat) by density gradient centrifugation. LPS is then added to the PMBC suspension in complete medium (10^6 cells/ml) at a final concentration of 1 μg/ml. The compound to be tested was added at different dilution levels, and the cells were incubated at 37° C. for 72 hours. The supernatants were collected, and TNF-alpha or II-1 beta concentrations were measured with respectively an anti-TNF antibody or an anti-IL-1 beta antibody in a sandwich ELISA. The percent inhibition was calculated as: % inhibition=(pg/ml in sample−pg/ml min.)/(pg/ml max.−pg/ml min.)−1 wherein: min.: pg/ml in culture medium without test compound, and • max.: pg/ml in culture medium+LPS without test compound.
Background: In an ELISA, binding on a coated surface is turned into a signal by an enzyme label.

Experiment [3] deals with IL-1 beta production by PBMC. As to the kind of experiment: IL-1 beta assay, LPS-stimulated PBMC, sandwich ELISA. The procedure: as §1
Setting [4] is: Table 7, same conditions as example 26.
Where [5] appears, read: Table 7, same conditions as example 26, read-out: TNFα IC50.
[6] abbreviates: Table 7, same conditions as example 26, read-out: IL1β IC50.
Where [7] appears, read: Table 2, LPS 1 μg/ml, 72 hours, read-out: TNF IC50.
The mark [8] stands for this setting: Table 2, LPS 1 μg/ml, 72 hours, read-out: IL-1 IC50.
[9] abbreviates: Table 2, [3H]-thymidine incorporation after 5 days incubation.

Turning to “7-chloro-3-(chlorophenyl)-1-methyl-lumazine [Example 46]”, the IC50 in experiment [1] (setting [4]) worked out at 5700 nM; in experiment [2] (setting [5]), 4700 nM; in experiment [3] (setting [6]) it was 900 nM.
For the molecule `Cn1c(=O)[nH]c2nc(Cl)c(-c3ccccc3)nc2c1=O` [Example 6, 3-methyl-6-phenyl-7-chloro-lumazine], the results for the IC50 in experiment [2] (setting [7]) and in experiment [3] (setting [8]) were 3000 nM and 400 nM, respectively.
In the case of `Cn1c(=O)[nH]c(=O)c2nc(-c3ccccc3)c(Cl)nc21` [Example 14, 1-methyl-6-phenyl-7-chloro-lumazine], the values for the 50% inhibitory concentration (IC50) in experiment [1] (setting [9]) and in experiment [3] (setting [8]) were 4100 nM and 350 nM, respectively.
`COc1ccc(-c2nc3c(=O)[nH]c(=O)n(C)c3nc2Cl)cc1` [Example 15, 1-methyl-6-(4′-methoxyphenyl)-7-chloro-lumazine]: the concentration for half-maximal inhibition (IC50) was found to be 3000 nM in experiment [1] (setting [9]), 800 nM in experiment [2] (setting [7]) and 400 nM in experiment [3] (setting [8]).
Regarding `Cc1ccc(-c2nc3c(=O)[nH]c(=O)n(C)c3nc2Cl)cc1` [Example 16, 1-methyl-6-(4′-methylphenyl)-7-chloro-lumazine], the IC50 in experiment [1] (setting [9]) was 3600 nM; in experiment [2] (setting [7]) it was 1100 nM.
For `O=c1[nH]c(=O)n(-c2ccccc2)c2nc(Cl)c(-c3ccccc3)nc12` [Example 17, 1,6-diphenyl-7-chloro-lumazine], the half-maximal inhibitory concentration (IC50) in experiment [1] (setting [9]) was 3000 nM; in experiment [2] (setting [7]), 800 nM; in experiment [3] (setting [8]), 200 nM.
In the case of `O=c1[nH]c(=O)n(Cc2ccccc2)c2nc(Cl)c(-c3ccccc3)nc12` [Example 18, 1-benzyl-6-phenyl-7-chloro-lumazine], the concentration for half-maximal inhibition (IC50) stood at 4400 nM in experiment [1] (setting [9]) and 4500 nM in experiment [2] (setting [7]).
The like results for `COc1ccc(-c2nc3c(=O)[nH]c(=O)n(C)c3nc2Cl)cc1OC` [Example 19, 1-methyl-6-(3′,4′-dimethoxyphenyl)-7-chloro-lumazine] were, in that order, 5100 nM and 1100 nM.
For the molecule `Cn1c(=O)[nH]c(=O)c2nc(-c3ccc(Cl)cc3)c(Cl)nc21` [Example 20, 1-methyl-6-(4′-chlorophenyl)-7-chloro-lumazine], the IC50 in experiment [2] (setting [7]) turned out to be 3800 nM; in experiment [3] (setting [8]), 400 nM.
In the case of `COc1ccc(-c2nc3c(=O)[nH]c(=O)n(C)c3nc2Cl)cc1` [Example 40, 7-chloro-6-(4-methoxyphenyl)-1-methyl-lumazine], the values for the 50% inhibitory concentration (IC50) in experiment [1] (setting [4]), in experiment [2] (setting [5]) and in experiment [3] (setting [6]) were 3300 nM, 800 nM and 600 nM, respectively.
In the case of `COc1ccc(-c2nc3c(=O)[nH]c(=O)n(C)c3nc2Cl)cc1OC` [Example 41, 7-chloro-6-(3,4-dimethoxyphenyl)-1-methyl-lumazine], the IC50 amounted to 5100 nM in experiment [1] (setting [4]), 1700 nM in experiment [2] (setting [5]) and 700 nM in experiment [3] (setting [6]).
Turning to `COc1cccc(-c2nc3c(=O)[nH]c(=O)n(C)c3nc2Cl)c1` [Example 43, 7-chloro-6-(3-methoxyphenyl)-1-methyl-lumazine], the figures for the IC50 in experiment [1] (setting [4]), in experiment [2] (setting [5]) and in experiment [3] (setting [6]) were 4900 nM, 3700 nM and 2000 nM, respectively.
Turning to `COc1cccc(OC)c1-c1nc2c(=O)[nH]c(=O)n(C)c2nc1Cl` [Example 44, 7-chloro-(2,6-dimethoxyphenyl)-1-methyl-lumazine], the half-maximal inhibitory concentration (IC50) came out at 4900 nM in experiment [1] (setting [4]), 5900 nM in experiment [2] (setting [5]) and 500 nM in experiment [3] (setting [6]).
Taken in the same sequence, the figures for `Cn1c(=O)[nH]c(=O)c2nc(-c3ccccc3Cl)c(Cl)nc21` [Example 45, 7-chloro-(2-chlorophenyl)-1-methyl-lumazine] were 3900 nM, 2300 nM and 300 nM.
With `Cn1c(=O)[nH]c(=O)c2nc(-c3ccc(C#N)cc3)c(Cl)nc21` [Example 48, 7-chloro6-(4-cyanophenyl)-1-methyl-lumazine], the values for the IC50 in experiment [1] (setting [4]), in experiment [2] (setting [5]) and in experiment [3] (setting [6]) were 4300 nM, 2500 nM and 400 nM, respectively.
Regarding `COc1ccc(-c2nc3c(=O)[nH]c(=O)n(C)c3nc2Br)cc1OC` [Example 50, 7-bromo-6-(3,4-dimethoxyphenyl)-1-methyl-lumazine], the IC50 in experiment [1] (setting [4]) was found to be 4000 nM; in experiment [2] (setting [5]) it was 1000 nM; in experiment [3] (setting [6]), 600 nM.
For `COc1ccc(-c2nc3c(=O)[nH]c(=O)n(C)c3nc2Br)cc1` [Example 51, 7-bromo-6-(4-methoxyphenyl)-1-methyl-lumazine], the IC50 was found to be 3600 nM in experiment [1] (setting [4]), 4600 nM in experiment [2] (setting [5]) and 5700 nM in experiment [3] (setting [6]).
As to `Cc1ccc(-c2nc3c(=O)[nH]c(=O)n(C)c3nc2Cl)cc1` [Example 52, 7-chloro-1-methyl-6-(4-methylphenyl)-lumazine], the concentration for half-maximal inhibition (IC50) in experiment [1] (setting [4]) was 3500 nM; in experiment [2] (setting [5]) it was 1100 nM.
On to `O=c1[nH]c(=O)n(Cc2ccccc2)c2nc(Cl)c(-c3ccccc3)nc12` [Example 53, 7-chloro-1-benzyl-6-phenyl-lumazine], for which the figures for the IC50 in experiment [1] (setting [4]), in experiment [2] (setting [5]) and in experiment [3] (setting [6]) were 4400 nM, 4500 nM and 1200 nM, respectively.
For the molecule `Cn1c(=O)[nH]c(=O)c2nc(-c3ccc(Cl)cc3)c(Cl)nc21` [Example 54, 7-chloro-6-(4-chlorophenyl)-1-methyl-lumazine], the IC50 came out at 3800 nM in experiment [2] (setting [5]) and 500 nM in experiment [3] (setting [6]).
As for `CCOC(=O)CCCn1c(=O)c2nc(-c3ccccc3)c(Cl)nc2n(C)c1=O` [Example 55, 7-chloro-3-(ethyl butyrate)-1-methyl-6-phenyl-lumazine], the 50% inhibitory concentration (IC50) is 4900 nM in experiment [1] (setting [4]), 500 nM in experiment [2] (setting [5]) and 600 nM in experiment [3] (setting [6]).
Taken in the same sequence, the figures for `CCOC(=O)CCCn1c(=O)n(C)c(=O)c2nc(-c3ccccc3)c(Cl)nc21` [Example 56, 7-chloro-1-(ethyl butyrate)-3-methyl-6-phenyl-lumazine] were 4900 nM, 500 nM and 600 nM.
Take `Cn1c(=O)n(CCO)c(=O)c2nc(-c3ccccc3)c(Cl)nc21` [Example 57, 7-chloro-3-(2-hydroxyethyl)-1-methyl-6-phenyl-lumazine]: the figures for the IC50 in experiment [1] (setting [4]), in experiment [2] (setting [5]) and in experiment [3] (setting [6]) were 5000 nM, 400 nM and 700 nM, respectively.
`Cn1c(=O)n(CCc2ccccc2)c(=O)c2nc(-c3ccccc3)c(Cl)nc21` [Example 58, 7-chloro-3-(2-phenylethyl)-1-methyl-6-phenyl-lumazine]: the 50% inhibitory concentration (IC50) was 5600 nM in experiment [1] (setting [4]), 5500 nM in experiment [2] (setting [5]) and 500 nM in experiment [3] (setting [6]).
The like results for `Cn1c(=O)n(Cc2ccccc2)c(=O)c2nc(-c3ccccc3)c(Cl)nc21` [Example 59, 7-chloro-3-benzyl-1-methyl-6-phenyl-lumazine] were, in that order, 5000 nM, 5300 nM and 500 nM.
For the molecule `Cn1c(=O)c2nc(-c3ccccc3)c(Cl)nc2n(CCc2ccccc2)c1=O` [Example 60, 7-chloro-1-(2-phenylethyl)-3-methyl-6-phenyl-lumazine], the values for the IC50 in experiment [1] (setting [4]), in experiment [2] (setting [5]) and in experiment [3] (setting [6]) were 3500 nM, 5800 nM and 4100 nM, respectively.
Taken in the same sequence, the figures for `Cn1c(=O)c2nc(-c3ccccc3)c(Cl)nc2n(Cc2ccccc2)c1=O` [Example 61, 1-benzyl-7-chloro-3-methyl-6-phenyl-lumazine] were 3700 nM, 700 nM and 500 nM.
The like results for `Cn1c(=O)c2nc(-c3ccccc3)c(Cl)nc2n(CCO)c1=O` [Example 62, 7-chloro-1-(2-hydroxyethyl)-3-methyl-6-phenyl-lumazine] were, in that order, 2500 nM, 600 nM and 600 nM.
The like results for `CCOC(=O)CCCn1c(=O)c2nc(-c3ccc(OC)c(OC)c3)c(Cl)nc2n(C)c1=O` [Example 63, 7-chloro-6-(3,4-dimethoxyphenyl)-3-(ethyl butyrate)-1-methyl-lumazine] were, in that order, 5700 nM, 600 nM and 900 nM.
`COc1ccc(-c2nc3c(=O)n(CCO)c(=O)n(C)c3nc2Cl)cc1OC` [Example 64, 7-chloro-6-(3,4-dimethoxyphenyl)-3-(2-hydroxyethyl)-1-methyl-lumazine]: the IC50 in experiment [1] (setting [4]) was 5700 nM; in experiment [2] (setting [5]) it was 700 nM; in experiment [3] (setting [6]), 500 nM.
Taken in the same sequence, the figures for `CCOC(=O)CCCn1c(=O)c2nc(-c3ccccc3)c(Cl)nc2n(-c2ccccc2)c1=O` [Example 65, 7-chloro-1,6-diphenyl-3-(ethyl butyrate)-lumazine] were 3800 nM, 800 nM and 500 nM.
